Calls of active or inactive are those of the source. The calls are words filed in the database; no cut-off is given here.
system: not listed separately; test: Inhibition of soybean 15-LOX incubated for 4 mins before linoleic acid substrate addition by spectrophotometry; parameters: species or system Glycine max; settings: not given

Row | IC50 | SMILES
1 | Not Active | Brc1ccccc1-c1nc2scc(-c3ccccc3)n2c1NC1CCCCC1

same assay, conditions: read-out: IC50

Row | SMILES | IC50 [µM]
2 | COc1ccc(-c2nc3scc(-c4ccccc4)n3c2NC(C)(C)C)cc1 | 58
3 | O=c1c(O)c(-c2ccc(O)c(O)c2)oc2cc(O)cc(O)c12 [QUERCETIN] | 23
4 | CC(C)(C)CC(C)(C)Nc1c(-c2ccccc2[N+](=O)[O-])nc2scc(-c3ccccc3)n12 | 70
5 | O=[N+]([O-])c1ccccc1-c1nc2scc(-c3ccc(Br)cc3)n2c1NC1CCCCC1 | 170
6 | CC(C)(C)CC(C)(C)Nc1c(-c2ccc(Cl)cc2)nc2scc(-c3ccc(Br)cc3)n12 | 20.7
7 | CC(C)(C)Nc1c(-c2ccc(Cl)cc2)nc2scc(-c3ccccc3)n12 | 33
8 | Fc1ccccc1-c1nc2scc(-c3ccccc3)n2c1NC1CCCCC1 | 35.4
9 | Cc1ccc(-c2nc3scc(-c4ccccc4)n3c2NC(C)(C)C)cc1 | 35
10 | Clc1ccc(-c2nc3scc(-c4ccc(Br)cc4)n3c2NC2CCCCC2)cc1 | 52

Other lines, results leading:

Row | IC50 [µM] | SMILES
11 | 765 | COc1ccc(-c2nc3scc(-c4ccccc4)n3c2NC2CCCCC2)cc1
12 | 737 | O=[N+]([O-])c1ccc(-c2nc3scc(-c4ccccc4)n3c2NC2CCCCC2)cc1
13 | 45 | CC(C)(C)Nc1c(-c2ccc([N+](=O)[O-])cc2)nc2scc(-c3ccccc3)n12
14 | 32 | CC(C)(C)CC(C)(C)Nc1c(-c2ccc([N+](=O)[O-])cc2)nc2scc(-c3ccc(Br)cc3)n12
15 | 11.5 | COc1ccc(-c2csc3nc(-c4ccccc4)c(NC(C)(C)CC(C)(C)C)n23)cc1

system: not listed separately; test: Toxicity in rat PC12 cells at 1 to 10 uM after 24 hrs by MTT assay; type: cell-based; settings: pc-12, 24 h

Row | SMILES | Activity
16 | COc1ccc(-c2csc3nc(-c4ccccc4)c(NC(C)(C)CC(C)(C)C)n23)cc1 | Non-toxic

system: PC-12; test: Cytoprotective activity against rat PC12 cells assessed as protection against H2O2-induced cell death at 1 to 10 uM pre-treated 3 hrs before H2O2 addition and measured 24 hrs post H2O2 challenge by MTT assay; type: functional, cell-based; settings: not given

Row | SMILES | Activity
17 | COc1ccc(-c2csc3nc(-c4ccccc4)c(NC(C)(C)CC(C)(C)C)n23)cc1 | Active
